Laboratory results from patent publication US5097014A, “Chromogenic tripeptides” (Behringwerke Aktiengesellschaft, priority 1986, dated 1992).
Square brackets hold non-standard residues; d marks the D form. Peptide text beside a SMILES is read from it. * marks the point of attachment. pNA = O=[N+]([O-])c1ccc(N*)cc1; pGlu = O=C1CC[C@@H](C(=O)O)N1

Assays:
Format in all cases: biochemical
Settings in all cases: substrate solution 2 mmol/l (100 μl in 1 ml), tris buffer 50 mmol/l pH 8.0, 37° C.; pNA measured at 405 nm, Blue 49 at 623 nm
thrombin = thrombin (Homo sapiens, UniProt P00734); test: Substrate testing: cleavage of chromogenic substrate by thrombin
Method: (§1) 100 μl of the enzyme solution were added to a 800 μl of buffer solution (trishydroxyaminomethane, 50 mmol/l), pH 8.0, at 37° C., and 100 μl of 2 mmol/l of substrate solution were added. pNA cleaved off was measured at 405 nm, and Blue 49 or Blue 124 was measured at 623 nm. The cleavage rates were determined in OD/minute. The relative cleavage raten, and thus the specificities of some substrates and enzymes, can be seen from Table II.

protein C = protein C (Homo sapiens, UniProt P04070); test: Substrate testing: cleavage of chromogenic substrate by protein C
Method: as §1

plasmin = plasmin (Homo sapiens, UniProt P00747); test: Substrate testing: cleavage of chromogenic substrate by plasmin
Method: as §1

F Xa = F Xa (Homo sapiens, UniProt P00742); test: Substrate testing: cleavage of chromogenic substrate by F Xa
Method: as §1

kallikrein = test: Substrate testing: cleavage of chromogenic substrate by kallikrein
Method: as §1

urokinase = urokinase (Homo sapiens, UniProt P00749); test: Substrate testing: cleavage of chromogenic substrate by urokinase
Method: as §1

Chain of F Xa (P00742 235-488 limits assumed): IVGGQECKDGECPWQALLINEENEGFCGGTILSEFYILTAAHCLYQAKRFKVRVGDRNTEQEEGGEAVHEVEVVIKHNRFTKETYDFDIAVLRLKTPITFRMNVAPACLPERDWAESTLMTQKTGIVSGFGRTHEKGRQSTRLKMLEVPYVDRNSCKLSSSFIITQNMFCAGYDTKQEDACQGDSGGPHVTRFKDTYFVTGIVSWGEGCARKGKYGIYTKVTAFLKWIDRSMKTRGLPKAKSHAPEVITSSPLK
Chain of F Xa (P00742 41-179 partner limits assumed): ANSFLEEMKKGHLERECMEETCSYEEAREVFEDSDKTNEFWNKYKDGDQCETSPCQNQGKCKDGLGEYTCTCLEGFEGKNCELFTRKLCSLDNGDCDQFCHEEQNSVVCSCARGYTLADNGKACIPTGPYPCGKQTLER
Chain of plasmin (P00747 581-810 limits assumed, species assumed): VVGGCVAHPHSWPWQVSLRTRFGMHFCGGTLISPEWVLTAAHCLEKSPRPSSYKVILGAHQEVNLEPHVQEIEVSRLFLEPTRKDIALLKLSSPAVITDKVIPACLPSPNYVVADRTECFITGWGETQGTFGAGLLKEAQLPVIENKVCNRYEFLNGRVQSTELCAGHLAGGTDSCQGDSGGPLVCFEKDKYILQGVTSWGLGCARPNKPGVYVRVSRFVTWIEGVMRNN
Chain of plasmin (P00747 97-580 partner limits assumed, species assumed): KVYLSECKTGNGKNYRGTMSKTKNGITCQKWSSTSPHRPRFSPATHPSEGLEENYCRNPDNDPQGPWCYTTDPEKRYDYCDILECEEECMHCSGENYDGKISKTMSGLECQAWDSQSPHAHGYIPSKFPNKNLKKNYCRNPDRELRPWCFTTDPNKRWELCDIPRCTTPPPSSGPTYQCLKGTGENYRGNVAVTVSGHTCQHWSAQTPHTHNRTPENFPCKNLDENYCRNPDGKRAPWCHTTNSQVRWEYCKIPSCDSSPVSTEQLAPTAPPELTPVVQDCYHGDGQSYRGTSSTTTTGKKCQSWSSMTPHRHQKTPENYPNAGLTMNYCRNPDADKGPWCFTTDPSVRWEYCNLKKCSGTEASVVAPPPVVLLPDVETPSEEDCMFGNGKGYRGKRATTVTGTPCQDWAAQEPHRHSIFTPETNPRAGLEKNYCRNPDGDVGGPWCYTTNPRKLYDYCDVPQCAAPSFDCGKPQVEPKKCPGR
Chain of protein C (P04070 212-461 limits assumed): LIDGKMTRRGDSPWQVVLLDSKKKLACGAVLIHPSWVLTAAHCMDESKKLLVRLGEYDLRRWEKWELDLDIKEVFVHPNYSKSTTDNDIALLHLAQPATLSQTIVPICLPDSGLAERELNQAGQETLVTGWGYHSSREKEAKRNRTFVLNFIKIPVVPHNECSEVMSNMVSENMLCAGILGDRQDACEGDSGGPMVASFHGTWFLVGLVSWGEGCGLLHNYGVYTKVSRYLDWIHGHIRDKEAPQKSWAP
Chain of protein C (P04070 43-197 partner limits assumed): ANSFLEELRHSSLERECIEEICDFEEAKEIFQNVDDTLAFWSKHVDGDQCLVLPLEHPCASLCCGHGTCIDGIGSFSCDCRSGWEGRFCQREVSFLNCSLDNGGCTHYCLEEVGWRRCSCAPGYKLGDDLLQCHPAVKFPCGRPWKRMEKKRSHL

| cleavage rate, thrombin (thrombin) [OD/minute] | cleavage rate, protein C (protein C) [OD/minute] | cleavage rate, plasmin (plasmin) [OD/minute] | cleavage rate, F Xa (F Xa) [OD/minute] | cleavage rate, urokinase (urokinase) | Compound | cleavage rate, kallikrein (kallikrein) [OD/minute] |
| --- | --- | --- | --- | --- | --- | --- |
| 0.41 | 0.40 | 0.53 | 0.04 | – | N=C(N)NCCC[C@H](NC(=O)[C@@H]1CCCN1C(=O)[C@@H]1CCC(=O)N1)C(=O)Nc1ccc([N+](=O)[O-])cc1 [pyro--Glu--Pro--Arg--pNA, reference compound] ([pGlu]-Pro-Arg-pNA) | 0.51 |
| 0.15 | 0.76 | 0.02 | 0.095 | – | Tos--Gly--Pro--Arg--Blue 49 | 0.02 |
| 0.015 | 0.22 | 0.03 | 0.02 | 1,0 OD/minute | pyro--Glu--Pro--Arg--Blue 49 | 0.015 |

Continued, compound first:

| Compound | cleavage rate, thrombin (thrombin) [OD/minute] | cleavage rate, protein C (protein C) [OD/minute] | cleavage rate, plasmin (plasmin) [OD/minute] | cleavage rate, F Xa (F Xa) [OD/minute] | cleavage rate, urokinase (urokinase) | cleavage rate, kallikrein (kallikrein) [OD/minute] |
| --- | --- | --- | --- | --- | --- | --- |
| 7-(D-phenylalanyl-L-prolyl-L-arginylamino)-3-diethylamino-8-methylphenoxazo nium triacetate [H--D--Phe--Pro--Arg--Blue 49] | 0.395 | 0.03 | 0.00 | 0.01 | – | 0.00 |
| N=C(N)NCCC[C@H](NC(=O)[C@@H]1CCCCN1C(=O)[C@H](N)Cc1ccccc1)C(=O)Nc1ccc([N+](=O)[O-])cc1 [H--D--Phe--Pip--Arg--pNA, reference compound] | 0.41 | 0.075 | 0.035 | 0.025 | – | 0.11 |
| N=C(N)NCCC[C@H](NC(=O)CNC(=O)[C@@H]1CCC(=O)N1)C(=O)Nc1ccc([N+](=O)[O-])cc1 [pyro--Glu--Gly--Arg--pNA, reference compound] ([pGlu]-Gly-Arg-pNA) | 0.00 | 0.30 | 0.01 | 0.01 | – | 0.01 |
| D--Leu--Pro--Arg--Blue 49 [H--D--Leu--Pro--Arg--Blue 49] | 0.09 | 0.47 | 0.015 | 0.035 | – | 0.015 |
